From patent US9598463B2, “Mucin hypersecretion inhibitors and methods of use” (BIOMARCK PHARMACEUTICALS, LTD., priority 2005, dated 2017)
Marks after values point to notes of the source that are not given here. Where a SMILES comes first, the peptide text is derived from it. The star is where a group is joined. Myristoyl = CCCCCCCCCCCCCC(=O)*

How the values were obtained:
[1] = Stability of test peptides in human BALF (LC/MS/MS, first order half-life); type: in vitro ADME
Procedure: (§1) Various test peptides in human plasma, human BALF, and CF patient mucus were analyzed to determine the susceptability of the test peptide to proteolysis in the biological fluids. […] The samples were analyzed either on the same day as received or stored at −20° C. and analyzed within the following two days.
Samples of BALF collected from COPD patients were obtained and frozen. The BALF samples were thawed, mixed together and centrifuged at 10,000×g for 10 min at 4-8° C. The supernatant (0.9 mL) was spiked with 0.1 mL of 0.5 mg/mL solution of the peptide in 75 mM sodium acetate buffer at pH 7.0 and processed and analyzed as described above.
(§2) All samples were analyzed using LC/MS/MS (MDS/SCIEX, API 4000 Model). Chromatography was performed using a Phenomenex Luna C18 column, while mass spectrometry was performed using positive ion electrospray ionization.
(§3) Calibration standards were analyzed by LCMS at concentrations of 0.100 μg/mL, 1.00 μg/mL, 10.0 μg/mL, and 100 μg/mL for each peptide, with the exception of the calibration standards for peptides myr-PEPTIDE 106, PEPTIDE 106, PEPTIDE 106-NH2, PEPTIDE 106, and cyclic peptide, cyc-PEPTIDE 106, in human mucus, which were analyzed at concentrations of 0.100 μg/mL, 1.00 μg/mL, 10.0 μg/mL, and 75 μg/mL. Standards were prepared in 1% human BALF, plasma, or mucus in 50/50 water/acetonitrile mixture containing 0.2% formic acid. The instrument response values for each set of standards were fit using a 1/(concentration)^2 linear least-squares line. Sample concentrations were calculated using the slope and intercept of this line. Concentrations outside of the calibration range were determined by extrapolating the calibration curve.
Duplicate calibration standards were analyzed at a concentration of 50 μg/mL for each peptide. The instrument response values for each set of standards were fit through an intercept of 0 using an unweighted, linear least-squares line. Sample concentrations were calculated using the slope and intercept of this line.
For the analysis of peptide concentration in BALF samples, one 50 μg/mL calibration standard prepared in a mixture of BALF, water, acetonitrile, and formic acid was analyzed with each sample set.
(§4) Watson fits the log transformed data with a least-squares line to determine parameters such as Cmax (maximum concentration), intercept, rate constant, slope, and T1/2 (half-life). The resulting kinetic parameters were based on the linear fit, not the actual concentration values.
(§5) Time-zero calibration standards in solution were not included as part of the kinetic profiles.

[2] = Qualitative solubility of test peptides in 0.5 N saline; type: physicochemical; conditions: pH 6.5, 20° C. (table title)
Procedure: Various test peptides (1 to 5 mg each) were weighed out accurately in individual 2 mL screw cap glass vials and aliquots of 25 μL of 0.5 N saline, pH 6.5, were added at 25° C. and ambient pressure. The solubility was evaluated visually. If the test peptide dissolves completely with the first aliquot of saline, its solubility was calculated and designated as more than the calculated amount. […] Similarly, if 1.7 mg of a test peptide fails to dissolve in 1.7 mL of 0.5 N saline, its solubility is stated as <1.0 mg/mL.

[3] = Stability of test peptides in human CF mucus (LC/MS/MS, first order half-life); type: in vitro ADME
Procedure: as §1
The frozen mucus (sputum) from a CF patient was thawed and mixed with 2 volumes of 75 mM sodium acetate buffer, pH 7 with the help of a glass tissue grinder, centrifuged at 10,000×g for 10 min at 4-8° C. The pellet was re-suspended in 1 volume of the acetate buffer and centrifuged. The two supernatants were combined and used as follows. The supernatant (450 μL) was spiked with 50 μL, of 0.5 mg/mL solution of the peptide in 75 mM sodium acetate buffer at pH 7.0 and processed and analyzed as described above.
as §2, §3, §4, §5

[4] = Stability of test peptides in human plasma (LC/MS/MS, first order half-life); type: in vitro ADME
Procedure: as §1
Fresh human blood samples were collected in citrate buffered vacuutrainers (in absence of EDTA or heparin). Red blood cells (RBC) were removed by centrifugation of the blood at 4000×g for 10 min at 4° C. Plasma aliquots (0.9 mL) were then spiked with 0.1 mL of 0.5 mg/mL solution of the test peptide in 75 mM sodium acetate buffer at pH 7.0 and incubated in a water bath maintained at 37° C. Duplicate aliquots of 10 μL, were withdrawn at 5, 15, 30, 60, and 180 minutes intervals and immediately “quenched” with 990 μL of a solution consisting of 50% acetonitrile+50% water containing 0.2% formic acid. The samples were then subjected to liquid chromatography-mass spectrometry (LCMS) analysis.
as §2
as §3, with “curve. […]” for “curve.”
For the analysis of peptide concentration in plasma, duplicate calibration standards were analyzed at a concentration of 25 μg/mL and 50 μg/mL for each peptide. The instrument response values for each set of standards were fit through an intercept of 0 using an unweighted, linear least-squares line. Sample concentrations were calculated using the slope and intercept of this line. Concentrations outside of the calibration range were determined by extrapolating the calibration curve.
as §4, §5

[5] = test system: methacholine-induced mucin hypersecretion; experiment: Methacholine-induced mucin hypersecretion in ovalbumin-sensitized mouse model of asthma, BAL mucin ELISA (Balb/C mice); type: in vivo; conditions: for Mucin Secretion % control: Table II, peptides at 100 μM, 50 μL intratracheal 15 min before methacholine; for Mucin Secretion % of control: Table IV
Description: Experiments were designed to test whether or not the MANS peptide and other test peptides related thereto inhibit hypersecretion of mucin in murine airway in vivo. The ovalbumin-sensitized mouse model of allergic inflammation and asthma used in these studies was as described by Singer et al. (2004), supra. As a negative control, a control peptide containing an N-terminal myristoyl group and the same amino acids as MANS peptide but arranged in random order (i.e., the random N-terminal sequence, RNS, myristoyl-peptide 232) was tested alongside the proposed active peptides. BP2 mice, aged 6-8 wks, were immunized subcutaneously twice at weekly intervals with 1 μg of ovalbumin. After 14 days of sensitization, the animals were exposed to aerosolized ovalbumin, which causes a pronounced goblet cell hyperplasia after 72 hours. At the 72 hr time point, the secretagogue, methacholine ([…]) was delivered using a Buxco system nebulizer providing a fine aerosol for 90 seconds. Fifteen min prior to the secretagogue challenge, 50 μL of the test peptide, at 3 different concentrations (10 μM, 100 μM, or 140 μM), was administered by intratracheal route. The RNS peptide was tested at the highest dose level only (50 μL of 140 μM solution). […] Each experiment was carried out in 6 mice per point, and each set of experiments was repeated 3 times. To test strain-to-strain variations, the above experiment was repeated in Balb/C mice under similar protocol. Both stimulated and unstimulated mucin secretion, in mice treated with […] sodium acetate (data not shown), were identical to saline control. Following the methacholine challenge, the animals were sacrificed and bronchoalveolar lavage (BAL) performed on 6 animals per group for analysis of secreted mucin.
Mice were sacrificed by cervical dislocation, followed by rapid exposure of the trachea and insertion of a cannula through a small incision. Bronchoalveolar lavage (BAL) fluid was collected with 0.5 ml followed by 3×1 ml PBS containing PMSF (5 mM), EDTA (5 mM), and DTT (5 mM). BAL fluid was separated into cell-free and cell fractions via brief centrifugation prior to any analyses being performed. The cell-free supernatants were analyzed for the presence of mucin via an ELISA method using anti-mucin antibodies shown to react with mouse mucin. Specifically, a mouse anti-MUC5AC antibody that recognizes the carbohydrate portion of secreted mucin was used in these assays. Data generated from each BAL sample were normalized to total protein as determined by Bradford assay. Mucin content was expressed as the value obtained with the anti-mucin antibody minus that obtained with the non-immune control antibody. All ELISA data were statistically examined using a one-way ANOVA.

HBE1 cells = experiment: PMA-induced mucin hypersecretion in human bronchial epithelial cells (air/liquid interface, MUC5A ELISA); type: cell-based; conditions: 0.5 μM PMA, 30 min
Procedure: HBE1 is a papilloma virus-transformed human bronchial epithelial cell line capable of mucin secretion when cultured in air/liquid interface. HBE1 cells were cultured in the air/liquid interface as described previously (Li et al, J. Biol. Chem., volume 276, pp 40982-40990, 2001). Briefly, HBE1 cells were cultured in air/liquid interface by seeding an appropriate number of cells in 12-well Transwell clear culture inserts (Costar, Cambridge, Mass.) that were thinly coated with rat tail collagen, type I (Collaborative Biomedical, Bedford, Mass.). Cells were initially cultured submerged in medium in a humidified 95% air, 5% CO2 environment for 5-7 days until nearly confluent. At that time, the air/liquid interface was created by removing the apical medium and feeding cells basalaterally. Medium was renewed daily thereafter. Cells were cultured for an additional 14 days to allow full differentiation. The accumulated mucin at the apical surface of the cells was removed by washing with phosphate-buffered saline, pH 7.2. To collect the baseline mucin secretion, cells were incubated for 30 min with medium alone and secreted mucin in the apical medium was collected, and quantitated by ELISA. To determine the mucin hypersecretion induced by a mucin secretagogue, cells were exposed to medium containing 0.5 μM phorbol myristate acetate, (PMA) for 30 min. and mucin was collected and quantitated by ELISA. […] Six wells were used for each test peptides and for each control. Secreted mucin in the apical medium was collected and quantitated by sandwich ELISA method using alkaline phosphatase-conjugated mucin (MUC5A) specific antibody (Zymed Laboratories, San Francisco, Calif.).

[6] = human BALF from COPD patients, 1st experiment, read-out: BALF t1/2 (1st exp.) (converted)
[7] = human plasma, 37° C., 1st experiment, read-out: Plasma t1/2 (1st exp.) (converted)
[8] = human plasma, 37° C., 2nd experiment, read-out: Plasma t1/2 (2nd exp.) (converted)

Molecule: H-GAQFSKTAAK-NH2 [peptide 106-NH2]
- half-life [1, 6]: 4 h
- solubility [2]: > 100000 µg/mL
- half-life ([3]; cerebrospinal or other body fluid, pH 7, human CF mucus, 1st experiment, read-out: Mucus t1/2 (1st exp.) (converted)): 0.08 h
- half-life ([3]; cerebrospinal or other body fluid, pH 7, human CF mucus, 2nd experiment, read-out: Mucus t1/2 (2nd exp.) (converted)): 0.13 h
- half-life [4, 7]: 0.3 h
- half-life [4, 8]: 0.13 h

Molecule: CCCCCCCCCCCCCC(=O)NCC(=O)N[C@@H](C)C(=O)N[C@@H](CCC(N)=O)C(=O)N[C@@H](C)C(=O)N[C@@H](CO)C(=O)N[C@@H](CCCCN)C(=O)N[C@H](C(=O)N[C@@H](C)C(=O)N[C@@H](C)C(=O)N[C@@H](CCCCN)C(=O)O)[C@@H](C)O [myr-peptide 236] (Myristoyl-GAQASKTAAK-OH)
- half-life ([1]; cerebrospinal or other body fluid, human BALF from COPD patients, 1st experiment, read-out: BALF t1/2 (1st exp.) (converted)): 3.55 h
- half-life ([1]; cerebrospinal or other body fluid, human BALF from COPD patients, 2nd experiment, read-out: BALF t1/2 (2nd exp.) (converted)): 2.94 h
- solubility [2]: < 10000 µg/mL
- half-life [4, 7]: 0.72 h

Molecule: CCCCCCCCCCCCCC(=O)NCC(=O)N[C@@H](C)C(=O)N[C@@H](CCC(N)=O)C(=O)N[C@@H](Cc1ccccc1)C(=O)N[C@@H](CO)C(=O)N[C@@H](CCCCN)C(=O)N[C@H](C(=O)N[C@@H](C)C(=O)N[C@@H](C)C(=O)N[C@@H](CCCCN)C(=O)O)[C@@H](C)O [myr-peptide 106] (Myristoyl-GAQFSKTAAK-OH)
- half-life [1]: 1.03 h
- solubility [2]: > 10000 µg/mL
- half-life ([3]; cerebrospinal or other body fluid, pH 7, Mucus t1/2 (1st exp.)): 9.53 h
- half-life ([3]; cerebrospinal or other body fluid, pH 7, Mucus t1/2 (2nd exp.)): 3 h
- half-life ([4]; Plasma t1/2 (1st exp.)): 1.23 h
- half-life ([4]; Plasma t1/2 (2nd exp.)): 0.9 h
- Mucin Secretion % control [5]: 33.6 % control
- Mucin Secretion % of control ([5]; peptide 10 μM): 74*+ % of control
- Mucin Secretion % of control ([5]; peptide 100 μM): 24** % of control

Molecule: C[C@@H]1NC(=O)CNC(=O)[C@H](CCCCN)NC(=O)[C@H](C)NC(=O)[C@H](C)NC(=O)[C@H]([C@@H](C)O)NC(=O)[C@H](CCCCN)NC(=O)[C@H](CO)NC(=O)[C@H](Cc2ccccc2)NC(=O)[C@H](CCC(N)=O)NC1=O [cyclic-peptide 106] (cyclo(GAQFSKTAAK))
- solubility [2]: > 150000 µg/mL
- half-life ([3]; human CF mucus, 1st experiment, read-out: Mucus t1/2 (1st exp.) (converted)): 1.1 h
- half-life ([3]; human CF mucus, 2nd experiment, read-out: Mucus t1/2 (2nd exp.) (converted)): 2 h
- half-life [4, 8]: 1.04 h

Molecule: CCCCCCCCCCCCCC(=O)NCC(=O)N[C@@H](C)C(=O)N[C@@H](CCC(N)=O)C(=O)N[C@@H](Cc1ccccc1)C(=O)N[C@@H](CO)C(=O)N[C@@H](CCCCN)C(=O)N[C@H](C(=O)N[C@@H](CCCCN)C(=O)N[C@@H](C)C(=O)N[C@@H](CCCCN)C(=O)NCC(=O)N[C@@H](CCC(=O)O)C(N)=O)[C@@H](C)O [myr-peptide 234-NH2] (Myristoyl-GAQFSKTKAKGE-NH2)
- half-life [1, 6]: 1.7 h
- solubility [2]: < 2000 µg/mL
- half-life [4, 7]: 3.82 h
- Mucin Secretion % control [5]: 27.8 % control

Molecule: CCCCCCCCCCCCCC(=O)O[C@@H]1[C@@H](C)[C@@]2(O)[C@@H](C=C(CO)C[C@]3(O)C(=O)C(C)=C[C@@H]23)[C@@H]2C(C)(C)[C@]12OC(C)=O [PMA, phorbol myristate acetate, reference compound]
- Increase in mucin secretion (HBE1 cells): 20%
